Consider four molecules from patent US20250161282A1, “PHARMACEUTICAL PYRIDYL COMPOSITIONS FOR TREATING AND PREVENTING DELAYED GRAFT FUNCTION” (Unicycive Therapeutics, Inc., priority 2023, published 2025).

The test system of data set [1] is rat bilateral ischemia/reperfusion (IR) model. In words: rat bilateral ischemia/reperfusion (IR) model, oral Compound 8 (iodide salt). To be noted: for urine β2-MG levels and content compared with Group 2 (IR): iodide salt. The data set is classed as in vivo, male Sprague Dawley rats. An excerpt:
Animal models of IRI (ischemia reperfusion injury), DGF (delayed graft function), and AKI (acute kidney injury) mimic many features seen in human kidney allografts. […] In 2011, the FDA held a workshop to review the current state of knowledge related to the effects of IRI on outcomes in kidney transplantation in animal models. The FDA stated animal models have implicated maladaptive host responses to […]. The maladaptive responses are changes in hemodynamics, decrease in oxygen tension, mitochondrial dysfunction, tubular injury, inflammation, etc.
In the rat bilateral IR model, the bilateral renal pedicle was clamped for 45 min for ischemia and then the clamp is removed to allow reperfusion. […] Urine β2-MG levels and content of Group 2 were higher than those in Group 1. Compared with Group 2, Groups 3 and 4 had lower urine β2-MG levels and content (n=10/group) (FIG. 1; […] at 10 mg/kg dose and p<0.01 at 20 mg/kg dose—as per one-way ANOVA multiple comparison test).

Data set [2] in a line: Phase I study Part 2, multiple ascending doses (MAD), BID oral fasted. In kind it is in vivo, human. To be noted: for dose-proportionality of exposure from 40 mg to 80 mg (Cmax and AUC(0-tau)): Day 1, analyte = labelled substance; for Tmax at 5 days: read-out: median Tmax. An excerpt: Part 2 of the study was a double-blind, randomized, placebo-controlled, MAD study.
A further data set is described as follows: clinical. To be noted: both, human, plasma, oral.
A short description of data set [3]: Phase I study Part 1, single ascending doses (SAD), oral fasted.
Protocol: (§1) In this Phase I study, the safety and tolerability of single ascending doses (SAD) of Compound 8 was administered to male and female subjects. The study was a single centre, double-blinded, placebo-controlled, randomized single ascending doses (SAD) and multiple ascending doses (MAD) study in healthy male and female subjects of non-childbearing potential.
(§2) Part 1 was a double-blinded, randomized, placebo-controlled, SAD study, including approximately 32 subjects in 4 cohorts of 8 subjects each (randomized to a ratio of 6 active and 2 placebo per cohort). The subjects received the regimens presented in Table A. The route of administration was oral and fasted.
(§3) Subjects received a single dose of Compound 8 Capsule or placebo in the morning following an overnight fast. For Regimen E, Period 2, cohort SAD 3 were readmitted to the clinical unit. There was a minimum 7-day washout between dosing occasions for Regimen C and Regimen E. Blood samples were collected at regular intervals for safety and PK analysis from Day −1 to discharge from the clinical unit.
(§4) In Part 1 of the study, subjects received a single oral doses of Compound 8 Capsule or placebo on one occasion in the fasted state, except for subjects in Cohort SAD 3 who received two single doses on two separate occasions. Doses ranged from 10 mg to 160 mg. In Part 2 of the study, subjects received single doses of Compound 8 Capsule or placebo BID for 4 consecutive days and once on Day 5 in the fasted state. Doses ranged from 40 mg to 80 mg.
Data set [4] deals with unilateral IR model of AKI in rats. In words: unilateral IR model of AKI in rats (kidney functional markers, tubular injury). The data set is classed as in vivo, male SD (Sprague Dawley) rats. To be noted: for BUN vs IR vehicle: p<0.0001 (FIG. 4); for serum creatinine: p<0.0001 (FIG. 9A). Here is the method:
A total of […] male SD (Sprague Dawley) rats were divided into 10 groups each with 10 rats/group as detailed in the Table 3. The ischemia was induced in the left kidney using a small clamp (Sugita standard aneurysm clip holding force 145 g) that was placed on the renal vascular pedicle for 30 min for all groups except SHAM group.
All rats were housed in metabolic cages for the collection of 24-hour urine samples for ACR, NGAL and β2-MG levels. After 24 hours, rats were anaesthetized, and blood samples were collected for sCre, and BUN levels. The left kidney was collected and processed for histology for tubular injury scores.
A total of additional 10 male SD (Sprague Dawley) rats were used along with the Group 1 (No IR) and Group 2 (IR); and other Groups listed in the Tabel 3; and conducted the study. The ischemia was induced in the left kidney of those additional 10 rats using a small clamp (Sugita standard aneurysm clip holding force 145 g) that was placed on the renal vascular pedicle for 30 min.
Nicorandil at 10 mg/kg, was administered 30 minutes prior to the induction of ischemia via intraperitoneal (ip) administration to the additional 10 rats along with the groups listed in Table 3. All additional 10 rats were housed in metabolic cages for the collection of 24-hour urine samples for ACR. After 24 hours, rats were anaesthetized, and blood samples were collected for sCre. The left kidney was collected and processed for histology for tubular injury scores along with the other groups as detailed in Table 3.

The conditions of data set [5]: nicorandil 10 mg; cited from earlier work.
Data set [6] deals with contrast induced nephropathy. To be noted: 10 mg BID dosing; cited from earlier work.

Structures can show the parent of a compound that is named as a salt. Where two headings read alike, the source gives them in different places.

Protocol for clinical: as §1, §2, §3, §4

A word on the half-life: it is how long it takes for the measured level to halve. As a reminder, the AUC(0-t) is exposure summed from dosing to a finite time, without extrapolation to infinity. Higher therefore signals more exposure. In the case of `CC(NC(=O)OC[n+]1cccc(C(=O)NCCO[N+](=O)[O-])c1)C1CCCCC1` (stereo in doubt) [Compound 8, (S)-1-(((1-cyclohexylethylcarbamoyl)oxy)methyl)-3-((2-(nitroxy)ethyl)carbamoyl)pyridine-1-ium iodide], in data set [1] (10 and 20 mg/kg oral), the “physical or behavioral abnormalities vs vehicle” value is recorded as “no physical or behavioral abnormalities”, the “significant changes in body weight vs vehicle” value was “no”, the uACR vs vehicle result was “no significant difference” and the “urine albumin concentration or total amount vs vehicle” value was “no significant difference”. The “urine creatinine concentration or total amount vs vehicle” value in data set [1] (10 and 20 mg/kg oral) is “no significant difference”. In data set [1] (doses up to 20 mg/kg oral), the “creatinine marker of kidney function” value is listed as “did not appear to have a significant impact” and the “histological markers of kidney function (histological scores for tubular injury)” value is “did not appear to have a significant impact”. Besides, the “urine β2-MG levels and content compared with Group 2 (IR)” value in data set [1] (10 mg/kg oral 1 hour prior to ischemia, p<0.5 (FIG. 1)) was “lower”. Also, the “urine β2-MG levels and content compared with Group 2 (IR)” value in data set [1] (20 mg/kg oral 1 hour prior to ischemia, p<0.01 (FIG. 1)) is on record as “lower”. Moreover, the “dose-proportionality of exposure from 40 mg to 80 mg (Cmax and AUC(0-tau))” value in data set [2] was “approximate proportional increase”. The half-life at 5 day in data set [2] (both sexes, human, plasma, oral, Day 5, both doses, reliable in 3 out of the 10 profiles, read-out: individual plasma half-life) was in the range of 1.11 to 1.42 h. The Tmax at 5 days in data set [2] (both sexes, human, plasma, multiple oral doses 40 mg for 5 days) was 1.5 h. Moreover, the Tmax at 5 days in data set [2] (both sexes, human, plasma, multiple oral doses 80 mg for 5 days) is 1 h. In addition, in “clinical”, the Tmax lay within 0.5 to 1.5 h and the half-life lay in the range of 0.74 to 2.58 h. In the data set “clinical” (10 mg), this molecule showed an AUC(0-t) above 0.127 ng·h/mL and a Cmax above 1.01 ng/mL. Also, the “dose proportionality of peak and overall exposure (Cmax, AUC(0-last))” value in data set [3] (10 mg to 160 mg dose range) was “sub-proportional increase”.

Turning to `O=C(NCCO[N+](=O)[O-])c1cccnc1` [Nicorandil, reference compound], the “proximal tubules, histological images” value in data set [4] (10 mg/kg ip (FIG. 10D)) is given as “most all proximal tubules are healthy”. In data set [4] (10 mg/kg ip single dose 30 min prior to ischemia, p<0.0001 (FIG. 10A)), the “serum creatinine compared to Group 2” value is listed as “significantly reduced”. Moreover, the “ACR compared to Group 2” value in data set [4] (10 mg/kg ip single dose 30 min prior to ischemia, p<0.0001 (FIG. 10B)) is given as “significantly reduced”. In addition, in data set [4] (10 mg/kg ip single dose 30 min prior to ischemia, p<0.0001 (FIG. 10C)), the “tubular injury/damage compared to Group 2” value is listed as “significantly reduced”. Also, the “dose-proportionality of exposure from 40 mg to 80 mg (Cmax and AUC(0-tau))” value in data set [2] is reported as “proportional increase”. In data set [5], the AUC is recorded as 101 (range of 122-323) hour·ng/m, the Cmax is reported as 107 (range of 44-148) ng/mL and the Tmax is on record as 0.43 (range 0.25-0.75) hours. In data set [6], the “activity in contrast induced nephropathy” value is reported as “show activity”. Further, in data set [3] (nicorandil after Compound 8, Cmax and AUC(0-last)), the “dose proportionality of peak (20-160 mg) and total (40-160 mg) exposure” value is “slightly greater than proportional”.

Regarding `CC(N)C1CCCCC1` (stereo not shown) [1-cyclohexylethylamine], the “subjects with quantifiable concentrations” value in data set [2] (multiple oral dosing 40 mg or 80 mg Compound 8 for 5 days), in data set [2] (single dosing of Compound 8 Capsule 80 mg) and in data set [3] (after Compound 8 160 mg) was “all subjects” in each case. Also, the PK profiles result in data set [3] (after Compound 8 10 mg, 20 mg and 40 mg dose levels) is reported as “entirely BLQ”.

Turning to `C[C@@H](NC(=O)OC[n+]1cccc(C(=O)NCCO[N+](=O)[O-])c1)C1CCCCC1` [Compound 8, nitrate salt], the “serum creatinine vs IR vehicle” value in data set [4] (5 mg/kg/iv single dose 30 min prior to ischemia, p<0.0001 (FIG. 2C)) is “phenomenally reduced”; in data set [4] (10 mg/kg/iv single dose 30 min prior to ischemia, p<0.0001 (FIG. 2C)), “phenomenally reduced”; in data set [4] (50 mg/kg/ip single dose 30 min prior to ischemia, p<0.05 (FIG. 2B)), “significantly reduced”; in data set [4] (100 mg/kg/po single dose 30 min prior to ischemia, p<0.05 (FIG. 2A)) it was “significantly reduced”. Also, the “BUN vs IR vehicle” value in data set [4] (5 mg/kg/iv single dose 30 min prior to ischemia) and in data set [4] (10 mg/kg/iv single dose 30 min prior to ischemia) was “phenomenally reduced” in each case. The “urinary ACR vs IR vehicle” value is listed as “phenomenally reduced” in data set [4] (5 mg/kg/iv single dose 30 min prior to ischemia, p<0.001 (FIG. 3C)); “phenomenally reduced” in data set [4] (10 mg/kg/iv single dose 30 min prior to ischemia, p<0.001 (FIG. 3C)); “significantly reduced” in data set [4] (25 mg/kg/ip single dose 30 min prior to ischemia, p<0.01 (FIG. 3B)); “significantly reduced” in data set [4] (50 mg/kg/ip single dose 30 min prior to ischemia, p<0.001 (FIG. 3B)); “significantly reduced” in data set [4] (50 mg/kg/po single dose 30 min prior to ischemia, p<0.01 (FIG. 3A)); “significantly reduced” in data set [4] (100 mg/kg/po single dose 30 min prior to ischemia, p<0.001 (FIG. 3A)). Moreover, the “proximal convoluted tubular injury scores” value in data set [4] (intraperitoneal high dose 50 mg/kg, preventive, p<0.0001 (FIG. 6B)) was “effective in lowering”; in data set [4] (intravenous high dose 10 mg/kg, preventive, p<0.0001 (FIG. 6C)), “robustly effective in lowering”; in data set [4] (intravenous low dose 5 mg/kg, preventive, p<0.0001 (FIG. 6C)), “robustly effective in lowering”. Besides, the “tubular injury marker β2-MG (urinary)” value in data set [4] (intraperitoneal low dose 25 mg/kg, preventive, p<0.01 (FIG. 8)) is listed as “effective in lowering”. For the same molecule, the “tubular injury/damage, histological images” value in data set [4] (intraperitoneal route (FIG. 7D)) and in data set [4] (oral route (FIG. 7C)) was “moderately ameliorated” throughout. The “tubular injury marker NGAL (urinary)” value in data set [4] (intravenous high dose 10 mg/kg, preventive, p<0.0001 (FIG. 5B)) is reported as “robustly effective in lowering”; in data set [4] (intravenous low dose 5 mg/kg, preventive, p<0.0001 (FIG. 5B)), “robustly effective in lowering”; in data set [4] (oral high dose 100 mg/kg, preventive, p<0.0001 (FIG. 5A)), “effective in lowering”; in data set [4] (oral low dose 50 mg/kg, preventive, p<0.0001 (FIG. 5A)) it was “effective in lowering”. The “tubular injury/damage, histology” value in data set [4] (intravenous route, low and high doses (FIG. 6C, 7E)) is “markedly ameliorated”. Further, the “proximal convoluted tubular injury scores/damage” value in data set [4] (oral high dose 100 mg/kg, preventive, p<0.0001 (FIG. 6A)) was “effective in lowering”. Besides, the BUN result in data set [4] (therapeutic regimen, 10 mg/kg/iv at 1 hour, p<0.001 (FIG. 9B)) is “phenomenally reduced”; in data set [4] (therapeutic regimen, 10 mg/kg/iv at 4 hours, p<0.0001 (FIG. 9B)) it was “phenomenally reduced”. For the same molecule, in data set [4] (therapeutic regimen, 10 mg/kg/iv at 4 hours, p<0.01 (FIG. 9C)), the “urinary NGAL” value is given as “phenomenally reduced”. For the same molecule, the serum creatinine entry in data set [4] (therapeutic regimen, 10 mg/kg/iv single dose at 1 hour after ischemia) is on record as “phenomenally reduced”; in data set [4] (therapeutic regimen, 10 mg/kg/iv single dose at 4 hours after ischemia), “phenomenally reduced”.
